According to BindingDB's records for patent US20250382289 (Xizang Haisco Pharmaceutical, 2025):

target: Ubiquitin carboxyl-terminal hydrolase 1/WD repeat-containing protein 48 (Homo sapiens, UniProt O94782); experiment: Inhibitory Activity on USP1/UAF1 Enzymology
Description: Ubiquitin rhodamine 110 was used as a substrate to detect the activity of the deubiquitinating enzyme USP1/UAF1 after drug treatment. The total test system was 20 μl, and the test buffer comprises 50 mM Tris-HCl (pH 7.8), 0.5 mM EDTA, 0.01% Bovine Serum Albumin, 1 mM DTT, and 0.01% Tween-20.

Ubiquitin carboxyl-terminal hydrolase 1/WD repeat-containing protein 48, sequence (O94782 whole entry): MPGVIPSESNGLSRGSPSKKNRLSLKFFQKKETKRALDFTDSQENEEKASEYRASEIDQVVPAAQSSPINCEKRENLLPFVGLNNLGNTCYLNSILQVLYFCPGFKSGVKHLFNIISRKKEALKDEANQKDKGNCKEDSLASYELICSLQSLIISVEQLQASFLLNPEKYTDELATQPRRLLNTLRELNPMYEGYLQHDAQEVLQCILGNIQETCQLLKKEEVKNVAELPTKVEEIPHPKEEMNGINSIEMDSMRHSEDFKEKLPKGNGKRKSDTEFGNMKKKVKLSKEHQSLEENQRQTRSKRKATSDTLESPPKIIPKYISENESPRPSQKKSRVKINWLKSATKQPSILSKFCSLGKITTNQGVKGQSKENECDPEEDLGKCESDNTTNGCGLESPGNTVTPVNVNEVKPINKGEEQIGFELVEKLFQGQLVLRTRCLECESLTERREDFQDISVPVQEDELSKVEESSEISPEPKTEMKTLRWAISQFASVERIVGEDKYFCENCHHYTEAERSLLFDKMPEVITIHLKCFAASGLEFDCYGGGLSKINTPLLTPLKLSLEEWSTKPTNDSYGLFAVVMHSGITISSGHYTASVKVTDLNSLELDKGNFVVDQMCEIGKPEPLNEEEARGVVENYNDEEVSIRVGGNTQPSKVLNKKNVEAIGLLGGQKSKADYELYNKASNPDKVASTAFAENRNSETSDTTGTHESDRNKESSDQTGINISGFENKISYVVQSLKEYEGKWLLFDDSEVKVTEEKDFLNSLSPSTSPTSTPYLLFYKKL
Ubiquitin carboxyl-terminal hydrolase 1/WD repeat-containing protein 48, sequence (Q8TAF3 whole entry, further chain): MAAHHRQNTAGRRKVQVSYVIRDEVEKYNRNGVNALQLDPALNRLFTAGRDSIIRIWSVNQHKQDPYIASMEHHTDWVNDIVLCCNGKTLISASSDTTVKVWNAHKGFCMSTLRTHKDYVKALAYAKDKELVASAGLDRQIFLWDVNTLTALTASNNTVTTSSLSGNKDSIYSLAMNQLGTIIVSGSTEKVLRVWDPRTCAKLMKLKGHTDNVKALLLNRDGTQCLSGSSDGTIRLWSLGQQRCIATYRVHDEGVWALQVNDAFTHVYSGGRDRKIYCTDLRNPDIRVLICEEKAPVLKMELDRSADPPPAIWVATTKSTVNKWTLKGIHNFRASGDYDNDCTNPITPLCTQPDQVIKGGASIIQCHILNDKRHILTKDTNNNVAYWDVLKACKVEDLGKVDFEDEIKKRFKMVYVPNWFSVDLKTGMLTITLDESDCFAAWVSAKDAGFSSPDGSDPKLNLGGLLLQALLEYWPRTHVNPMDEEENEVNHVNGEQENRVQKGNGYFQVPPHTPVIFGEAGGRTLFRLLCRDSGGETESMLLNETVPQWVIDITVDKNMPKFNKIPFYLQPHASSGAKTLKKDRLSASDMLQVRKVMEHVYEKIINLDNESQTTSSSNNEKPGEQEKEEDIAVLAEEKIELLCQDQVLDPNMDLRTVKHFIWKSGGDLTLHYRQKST

**Q.** With Fc1c(-c2c(OC(F)F)ncnc2C2CC2)ncc2cnn(CC34CCC(c5nc(C(F)(F)F)cn5CC5CC5)(CC3)CC4)c12 [US20250382289, Compound 10] as the compound, how does the IC50 read?
**A.** < 20 nM

**Q.** For Fc1c(-c2c(OC(F)F)ncnc2C2CC2)ncc2cnn(Cc3ccc(-c4nc(C(F)(F)F)c5n4CC4(CC4)C5)cc3)c12 [US20250382289, Compound 12], which IC50 is on record?
**A.** < 20 nM

**Q.** How did the IC50 turn out when Fc1c(-c2c(OC(F)F)ncnc2C2CC2)ncc2cnn(Cc3ccc(-c4nc(C(F)(F)F)c5n4CC(F)(F)C5)cc3)c12 [US20250382289, Compound 14] was run?
**A.** < 20 nM

**Q.** C#CCn1cc(C(F)(F)F)nc1-c1ccc(Cn2ncc3cnc(-c4c(OC(F)F)ncnc4C4CC4)c(F)c32)cc1 [US20250382289, Compound 18] was tested. Which IC50 did it give?
**A.** < 20 nM

**Q.** How did the IC50 turn out when CC#CCn1cc(C(F)(F)F)nc1-c1ccc(Cn2ncc3cnc(-c4c(OC(F)F)ncnc4C4CC4)c(F)c32)cc1 [US20250382289, Compound 19] was run?
**A.** < 20 nM

**Q.** CC(C)n1cc(C(F)(F)F)nc1-c1ccc(Cn2ncc3cnc(-c4c(OC(F)F)ncnc4C4CC4)c(F)c32)cc1 [US20250382289, Compound 20] was tested. Which IC50 did it give?
**A.** < 20 nM

**Q.** How did the IC50 turn out when COc1ncnc(C2CC2)c1-c1ncc2cnn(Cc3ccc(-c4nc(C(F)(F)F)c5n4CC4(CC4)C5)cc3)c2c1F [US20250382289, Compound 21] was run?
**A.** < 20 nM
